Data: patent publication US9182397B2, “Immunoassay for detecting antibiotics” (DSM IP ASSETS B.V., priority 2011, dated 2015)

Tests used:
Set-up in all cases: key: 0: no intensity; 1: low intensity; 2: medium intensity; 3: high intensity
[1] = test system: Penicillin binding protein purified from Bacillus stearothermophilus; assay: Detection of Penicillin G in different dairy matrices (Example 24)
Protocol: (§1) A nitrocellulose HF90 membrane (Millipore; length 25 mm) was used as a detection region. The membrane was glued to a polystyrene laminated card (thickness 0.254 mm) 8 mm from the proximal end of the card. Next, the detection zone and control zone were applied onto the nitrocellulose membrane. The detection zone was applied by dispensing 1 mg/ml of a 7ACA-spacer-BSA conjugate in 20 mM KPO4-buffer (pH 7.5) with a Biodot Dispense workstation XYZ 3050 with frontline at 0.2 μl/cm. The control zone was applied by dispensing 0.15 mg/ml of an anti-IgY antibody in 20 mM KPO4-buffer (pH 7.5) comprising 0.675 mg/ml BSA, 5% w/v saccharose and 20 mM NaCl with a Biodot Dispense workstation XYZ 3050 with frontline at 0.8 μl/cm. After drying of the zones, the nitrocellulose membrane was blocked by spraying a solution comprising 10 mM Tris buffer (pH 8) comprising 2% w/v BSA and 0.05% w/v Tween-20 using a Biodot Dispense workstation XYZ 3050 with airjet 3×. The solution was sprayed onto the membrane at a distance of 2 mm below the detection zone. Thereafter, the sample receiving region (VF2 membrane from Millipore; length 1 cm) was glued at the proximal end of the card overlapping 2 mm with the nitrocellulose membrane. The absorbing region (10038 membrane from Millipore; length 20 mm) was glued at the distal end of the card with an overlap of 2 mm on the nitrocellulose membrane. The obtained cards were dried at 37° C. in a dry atmosphere (0% relative humidity). The card was cut in strips of 5.2 mm width and kept at a dry atmosphere (0% relative humidity).
(§2) Streptavidin-coated gold particles were synthesized by reacting colloidal gold (diameter 40 nm; 1 OD/ml) with 10 μg/ml streptavidin. Next, the obtained solution was concentrated by tangential flow filtration, washed and stored in a Tris buffer (pH 8) including NaCN. Penicillin binding protein purified from Bacillus stearothermophilus was biotinylated (1:4) with D-biotinyl-epsilon-aminocaproic acid-N-hydroxysuccinimide ester. Next, the penicillin binding protein-gold conjugate was synthesized by reacting 1.5 μg biotinylated penicillin binding protein with 1 OD streptavidin-coated gold particles for 1 hour, followed by centrifugation at 10,000×g for 5 minutes and resuspension of the obtained pellet in 45 mM bicarbonate buffer comprising 0.1% w/v Triton X-100 (pH 9.6).
(§3) Thereafter, 140-200 mOD of the penicillin binding protein-gold conjugate and 5-20 mOD of the IgY-gold conjugate was solubilized in 100 μl buffer (80 mM Tris buffer comprising 0.01% w/v Triton-X-100, 0.4% w/v BSA, 5% v/v glycerin and 2% w/v saccharose (pH 8.5)) and 0.75 μl of the solution was dispensed per tube and dried for 12 hours at 40° C. The obtained tubes were sealed.
(§4) 150 μl of spiked milk was added per tube containing the dried conjugates. The concentration of penicillin G in the added milk varied from 0 to 4 ng/g (tube 1: 0 ng/g; […]; tube 2: 2 ng/g; tube 3: 3 ng/g; and tube 4: 4 ng/g). The obtained liquid composition was incubated for 2 minutes at 64° C. in an incubator. A test device was put into the tube and incubated for 3 minutes at 64° C. in the incubator. The result was read by eye.
The test was done essentially as described in Example 3. Instead of raw milk, different dairy matrices were tested. All liquid matrices were measured as such and all powders were first dispersed in water. For milk powder 20 g was dispersed in 250 g distilled water and for whey powder 7.1 g was dispersed in 100 g distilled water.

[2] = test system: Penicillin binding protein purified from Bacillus stearothermophilus; assay: Detection of Penicillin G after storage of the test device at 4° C. (Example 25)
Protocol: as §1, §2, §3, §4
The test devices were produced as described above in Examples 1 and 2 and stored at 4° C. At different time periods after production, the test device was used to measure penicillin G. The test was done essentially as described in Example 3.

[3] = test system: Penicillin binding protein purified from Bacillus stearothermophilus; assay: Detection of Penicillin G after different shaking steps (Example 28)
Protocol: as §1, §2, §3, §4
The test was done essentially as described in Example 3, with the proviso that different shaking steps were applied. […]

[4] = test system: Penicillin binding protein purified from Bacillus stearothermophilus; assay: Detection of Penicillin G, test done at different temperatures (Example 29)
Protocol: as §1, §2, §3, §4
The test was done essentially as described in Example 3, with the proviso that the test was done at different temperatures (4° C., 20° C. or 31.5° C.).

## CC1(C)S[C@@H]2[C@H](NC(=O)Cc3ccccc3)C(=O)N2[C@H]1C(=O)O [Penicillin G]
[1]; Pen G 3 ppb, Cocoa
  Intensity of detection zone: 2
[1]; Pen G 3 ppb, Cream 10%
  Intensity of detection zone: 2
[1]; Pen G 3 ppb, Cream 40%
  Intensity of detection zone: 2
[1]; Pen G 3 ppb, Frozen raw buffalo milk (0 ppb gave 1)
  Intensity of detection zone: 1
[1]; Pen G 3 ppb, Frozen raw goat milk (0 ppb gave 1)
  Intensity of detection zone: 1
[1]; Pen G 3 ppb, Frozen raw milk
  Intensity of detection zone: 2
[1]; Pen G 3 ppb, Frozen raw sheep milk (0 ppb gave 1)
  Intensity of detection zone: 1
[1]; Pen G 3 ppb, Low fat UHT milk
  Intensity of detection zone: 2
[1]; Pen G 3 ppb, Low fat processed milk
  Intensity of detection zone: 2
[1]; Pen G 3 ppb, Milk powder (20 g dispersed in 250 g distilled water)
  Intensity of detection zone: 2
[1]; Pen G 3 ppb, Pasteurized milk
  Intensity of detection zone: 2
[1]; Pen G 3 ppb, UHT milk
  Intensity of detection zone: 2
[1]; Pen G 3 ppb, Whey pH 4.5 (0 ppb and control zone gave 0)
  Intensity of detection zone: 0
[1]; Pen G 3 ppb, Whey powder (7.1 g dispersed in 100 g distilled water)
  Intensity of detection zone: 2
[1]; Pen G 4 ppb, Cocoa
  Intensity of detection zone: 1
[1]; Pen G 4 ppb, Cream 10%
  Intensity of detection zone: 1
[1]; Pen G 4 ppb, Cream 40%
  Intensity of detection zone: 2
[1]; Pen G 4 ppb, Frozen raw buffalo milk (0 ppb gave 1)
  Intensity of detection zone: 0
[1]; Pen G 4 ppb, Frozen raw goat milk (0 ppb gave 1)
  Intensity of detection zone: 0
[1]; Pen G 4 ppb, Frozen raw milk
  Intensity of detection zone: 1
[1]; Pen G 4 ppb, Frozen raw sheep milk (0 ppb gave 1)
  Intensity of detection zone: 0
[1]; Pen G 4 ppb, Low fat UHT milk
  Intensity of detection zone: 1
[1]; Pen G 4 ppb, Low fat processed milk
  Intensity of detection zone: 1
[1]; Pen G 4 ppb, Milk powder (20 g dispersed in 250 g distilled water)
  Intensity of detection zone: 1
[1]; Pen G 4 ppb, Pasteurized milk
  Intensity of detection zone: 1
[1]; Pen G 4 ppb, UHT milk
  Intensity of detection zone: 1
[1]; Pen G 4 ppb, Whey pH 4.5 (0 ppb and control zone gave 0)
  Intensity of detection zone: 0
[1]; Pen G 4 ppb, Whey powder (7.1 g dispersed in 100 g distilled water)
  Intensity of detection zone: 1
[2]; Pen G 3 ppb, test device stored 0 weeks at 4° C.
  Intensity of detection zone: 2
[2]; Pen G 3 ppb, test device stored 4 weeks at 4° C.
  Intensity of detection zone: 2
[2]; Pen G 3 ppb, test device stored 7 weeks at 4° C.
  Intensity of detection zone: 2
[2]; Pen G 3 ppb, test device stored 15 weeks at 4° C.
  Intensity of detection zone: 2
[2]; Pen G 3 ppb, test device stored 18 weeks at 4° C.
  Intensity of detection zone: 2
[2]; Pen G 3 ppb, test device stored 26 weeks at 4° C.
  Intensity of detection zone: 2
[2]; Pen G 4 ppb, test device stored 0 weeks at 4° C.
  Intensity of detection zone: 1
[2]; Pen G 4 ppb, test device stored 4 weeks at 4° C.
  Intensity of detection zone: 1
[2]; Pen G 4 ppb, test device stored 7 weeks at 4° C.
  Intensity of detection zone: 1
[2]; Pen G 4 ppb, test device stored 15 weeks at 4° C.
  Intensity of detection zone: 1
[2]; Pen G 4 ppb, test device stored 18 weeks at 4° C.
  Intensity of detection zone: 1
[2]; Pen G 4 ppb, test device stored 26 weeks at 4° C.
  Intensity of detection zone: 1
[3]; Pen G 3 ppb, Method a, no shaking steps (0 ppb gave 2, control zone 1)
  Intensity of detection zone: 1
[3]; Pen G 3 ppb, Method b, one shaking step (10 seconds) after incubation
  Intensity of detection zone: 2
[3]; Pen G 3 ppb, Method c, one shaking step (10 seconds) before incubation
  Intensity of detection zone: 2
[3]; Pen G 3 ppb, Method d, shaking 5 seconds before and 10 seconds after incubation
  Intensity of detection zone: 2
[3]; Pen G 3 ppb, Method e, shaking 10 seconds before and 10 seconds after incubation
  Intensity of detection zone: 2
[3]; Pen G 4 ppb, Method a, no shaking steps (0 ppb gave 2, control zone 1)
  Intensity of detection zone: 1
[3]; Pen G 4 ppb, Method b, one shaking step (10 seconds) after incubation
  Intensity of detection zone: 1
[3]; Pen G 4 ppb, Method c, one shaking step (10 seconds) before incubation
  Intensity of detection zone: 1
[3]; Pen G 4 ppb, Method d, shaking 5 seconds before and 10 seconds after incubation
  Intensity of detection zone: 1
[3]; Pen G 4 ppb, Method e, shaking 10 seconds before and 10 seconds after incubation
  Intensity of detection zone: 1
[4]; Pen G 3 ppb, test done at temperature 4 ° C.
  Intensity of detection zone: 2
[4]; Pen G 3 ppb, test done at temperature 20 ° C.
  Intensity of detection zone: 2
[4]; Pen G 3 ppb, test done at temperature 31.5 ° C.
  Intensity of detection zone: 2
[4]; Pen G 4 ppb, test done at temperature 4 ° C.
  Intensity of detection zone: 1
[4]; Pen G 4 ppb, test done at temperature 20 ° C.
  Intensity of detection zone: 1
[4]; Pen G 4 ppb, test done at temperature 31.5 ° C.
  Intensity of detection zone: 1
